In the test the target is T1, BCL6 (Homo sapiens, UniProt P41182).
T1 construct: BTB domain
The experiment in a line: SPR (also HTRF BCL6-BTB/SMRT disruption). It is filed as binding.

For `C[C@@H]1CN(c2ncc(F)c(Nc3ccc4oc(=O)ccc4c3)n2)C[C@H](C)N1` [WK369], binding was characterised by a dissociation constant (Kd) of 2240 nM.

The values are drawn from paper PMC10758095, “Selectively targeting BCL6 using a small molecule inhibitor is a potential therapeutic strategy for ovarian cancer” (International Journal of Biological Sciences, 2024).
